Read-outs that look alike come from different tables or passages of the source. One block for each molecule: values may come before it.
Tests used:
Assay in all cases: Ambit kinase profiling, competition binding
RAF1 = target: T1, RAF1 (Homo sapiens, UniProt P04049)
T1 construct: purchased Ambit Biosciences (KINOMEscan)
Protocol: (§1) Also included in the kinase profile are four isoforms of PKC (δ, ε, η, θ) and eight isoforms of CAMKs (CAMKIα, δ, γ; CAMKIIα, β, δ, γ; CAMK4).
(§2) The global kinase profiling experiment was performed by Ambit Biosciences.

PRKD2 = target: T2, PRKD2 (Homo sapiens, UniProt Q9BZL6)
T2 construct: purchased Ambit Biosciences (KINOMEscan)
T2 sequence (Q9BZL6 1-878): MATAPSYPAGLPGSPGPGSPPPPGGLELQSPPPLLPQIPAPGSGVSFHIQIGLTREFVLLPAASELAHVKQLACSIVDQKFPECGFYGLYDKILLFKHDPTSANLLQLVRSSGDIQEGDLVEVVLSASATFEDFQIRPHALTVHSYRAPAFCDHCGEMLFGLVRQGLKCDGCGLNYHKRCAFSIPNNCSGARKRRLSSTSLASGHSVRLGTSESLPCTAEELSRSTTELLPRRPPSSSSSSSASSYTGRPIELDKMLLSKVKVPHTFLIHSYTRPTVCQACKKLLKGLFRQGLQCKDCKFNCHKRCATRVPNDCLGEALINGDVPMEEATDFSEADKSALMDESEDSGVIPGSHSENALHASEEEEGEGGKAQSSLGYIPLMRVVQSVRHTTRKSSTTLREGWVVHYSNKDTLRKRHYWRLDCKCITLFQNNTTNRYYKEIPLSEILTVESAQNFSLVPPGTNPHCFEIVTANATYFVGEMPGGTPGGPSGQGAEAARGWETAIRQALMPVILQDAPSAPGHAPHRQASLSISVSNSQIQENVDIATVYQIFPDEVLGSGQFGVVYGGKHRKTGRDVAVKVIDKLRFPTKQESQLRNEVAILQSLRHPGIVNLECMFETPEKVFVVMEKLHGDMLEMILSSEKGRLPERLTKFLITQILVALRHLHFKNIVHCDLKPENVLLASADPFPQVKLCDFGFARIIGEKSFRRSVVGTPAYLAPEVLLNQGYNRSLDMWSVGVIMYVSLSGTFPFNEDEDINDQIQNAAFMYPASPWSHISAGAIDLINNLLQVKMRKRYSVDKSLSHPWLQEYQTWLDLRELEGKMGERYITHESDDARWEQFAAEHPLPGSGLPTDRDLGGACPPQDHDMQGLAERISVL
Protocol: as §1, §2

PCTK3 = target: T3, PCTK3 (Homo sapiens, UniProt Q07002)
T3 construct: purchased Ambit Biosciences (KINOMEscan)
Protocol: as §1, §2

PAK7 = target: T4, PAK7 (Homo sapiens, UniProt Q9P286)
T4 construct: purchased Ambit Biosciences (KINOMEscan)
Protocol: as §1, §2

ROCK2 = target: T5, ROCK2 (Homo sapiens, UniProt O75116)
T5 construct: purchased Ambit Biosciences (KINOMEscan)
Protocol: as §1, §2

PLK4 = target: T6, PLK4 (Homo sapiens, UniProt O00444)
T6 construct: purchased Ambit Biosciences (KINOMEscan)
T6 sequence (O00444 1-970): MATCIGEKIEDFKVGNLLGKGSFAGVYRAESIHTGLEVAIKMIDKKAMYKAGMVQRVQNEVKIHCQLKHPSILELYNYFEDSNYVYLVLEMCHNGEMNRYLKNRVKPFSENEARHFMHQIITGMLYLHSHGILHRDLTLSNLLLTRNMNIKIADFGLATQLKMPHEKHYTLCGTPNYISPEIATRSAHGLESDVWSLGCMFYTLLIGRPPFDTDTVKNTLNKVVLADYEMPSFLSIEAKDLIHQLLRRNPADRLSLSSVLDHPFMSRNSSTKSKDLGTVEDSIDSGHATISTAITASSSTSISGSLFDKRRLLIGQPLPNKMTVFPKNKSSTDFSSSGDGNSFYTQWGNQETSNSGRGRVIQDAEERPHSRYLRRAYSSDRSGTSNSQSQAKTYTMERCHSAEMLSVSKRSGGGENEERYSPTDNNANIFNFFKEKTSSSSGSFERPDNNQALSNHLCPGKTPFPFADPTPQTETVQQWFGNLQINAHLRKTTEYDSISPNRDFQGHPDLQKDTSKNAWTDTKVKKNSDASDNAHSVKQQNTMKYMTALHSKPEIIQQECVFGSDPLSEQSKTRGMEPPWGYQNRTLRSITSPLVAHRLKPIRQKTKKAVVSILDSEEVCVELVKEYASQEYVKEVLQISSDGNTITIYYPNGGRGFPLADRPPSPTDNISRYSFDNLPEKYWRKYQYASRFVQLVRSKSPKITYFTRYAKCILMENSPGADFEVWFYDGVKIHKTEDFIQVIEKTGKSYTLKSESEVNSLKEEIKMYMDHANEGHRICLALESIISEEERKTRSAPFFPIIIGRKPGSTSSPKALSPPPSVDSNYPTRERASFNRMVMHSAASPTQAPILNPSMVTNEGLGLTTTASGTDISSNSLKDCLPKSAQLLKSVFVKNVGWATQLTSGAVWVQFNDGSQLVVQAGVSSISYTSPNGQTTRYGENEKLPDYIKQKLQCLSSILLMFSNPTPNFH
Protocol: as §1, §2

BTK = target: T7, BTK (Homo sapiens, UniProt Q06187); conditions: for % Competition: 10 µM
T7 construct: purchased Ambit Biosciences (KINOMEscan)
Protocol: as §1, §2

CDK3 = target: T8, CDK3 (Homo sapiens, UniProt Q00526); conditions: for % Competition: 10 µM
T8 construct: purchased Ambit Biosciences (KINOMEscan)
Protocol: as §1, §2

[1] = target: T9, RPS6KA1(Kin.Dom.2-C-terminal) (Homo sapiens, UniProt Q15418)
T9 construct: RPS6KA1(Kin.Dom.2-C-terminal); purchased Ambit Biosciences (KINOMEscan)
Protocol: as §1, §2

KIT(V559D) = target: T10, KIT(V559D) (Homo sapiens, UniProt P10721, V559D)
T10 construct: purchased Ambit Biosciences (KINOMEscan)
Protocol: as §1, §2

T1 sequence (P04049 whole entry): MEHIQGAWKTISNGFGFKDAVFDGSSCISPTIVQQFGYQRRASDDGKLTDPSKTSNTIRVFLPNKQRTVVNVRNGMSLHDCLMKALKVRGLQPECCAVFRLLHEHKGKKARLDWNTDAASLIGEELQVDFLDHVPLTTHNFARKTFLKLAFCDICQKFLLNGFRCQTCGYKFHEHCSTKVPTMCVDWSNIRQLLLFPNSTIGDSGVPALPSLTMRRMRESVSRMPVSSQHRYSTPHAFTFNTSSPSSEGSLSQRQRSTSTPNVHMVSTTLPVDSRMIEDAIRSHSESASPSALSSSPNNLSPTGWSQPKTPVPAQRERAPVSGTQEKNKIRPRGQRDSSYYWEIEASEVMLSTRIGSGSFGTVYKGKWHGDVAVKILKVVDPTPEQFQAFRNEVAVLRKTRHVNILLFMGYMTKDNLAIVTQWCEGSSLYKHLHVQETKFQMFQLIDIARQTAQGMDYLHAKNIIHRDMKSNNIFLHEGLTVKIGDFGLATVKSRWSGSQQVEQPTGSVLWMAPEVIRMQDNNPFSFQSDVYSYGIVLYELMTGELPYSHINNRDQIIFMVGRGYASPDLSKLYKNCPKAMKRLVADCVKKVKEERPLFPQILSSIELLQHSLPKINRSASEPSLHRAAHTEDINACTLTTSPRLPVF
T5 sequence (O75116 whole entry): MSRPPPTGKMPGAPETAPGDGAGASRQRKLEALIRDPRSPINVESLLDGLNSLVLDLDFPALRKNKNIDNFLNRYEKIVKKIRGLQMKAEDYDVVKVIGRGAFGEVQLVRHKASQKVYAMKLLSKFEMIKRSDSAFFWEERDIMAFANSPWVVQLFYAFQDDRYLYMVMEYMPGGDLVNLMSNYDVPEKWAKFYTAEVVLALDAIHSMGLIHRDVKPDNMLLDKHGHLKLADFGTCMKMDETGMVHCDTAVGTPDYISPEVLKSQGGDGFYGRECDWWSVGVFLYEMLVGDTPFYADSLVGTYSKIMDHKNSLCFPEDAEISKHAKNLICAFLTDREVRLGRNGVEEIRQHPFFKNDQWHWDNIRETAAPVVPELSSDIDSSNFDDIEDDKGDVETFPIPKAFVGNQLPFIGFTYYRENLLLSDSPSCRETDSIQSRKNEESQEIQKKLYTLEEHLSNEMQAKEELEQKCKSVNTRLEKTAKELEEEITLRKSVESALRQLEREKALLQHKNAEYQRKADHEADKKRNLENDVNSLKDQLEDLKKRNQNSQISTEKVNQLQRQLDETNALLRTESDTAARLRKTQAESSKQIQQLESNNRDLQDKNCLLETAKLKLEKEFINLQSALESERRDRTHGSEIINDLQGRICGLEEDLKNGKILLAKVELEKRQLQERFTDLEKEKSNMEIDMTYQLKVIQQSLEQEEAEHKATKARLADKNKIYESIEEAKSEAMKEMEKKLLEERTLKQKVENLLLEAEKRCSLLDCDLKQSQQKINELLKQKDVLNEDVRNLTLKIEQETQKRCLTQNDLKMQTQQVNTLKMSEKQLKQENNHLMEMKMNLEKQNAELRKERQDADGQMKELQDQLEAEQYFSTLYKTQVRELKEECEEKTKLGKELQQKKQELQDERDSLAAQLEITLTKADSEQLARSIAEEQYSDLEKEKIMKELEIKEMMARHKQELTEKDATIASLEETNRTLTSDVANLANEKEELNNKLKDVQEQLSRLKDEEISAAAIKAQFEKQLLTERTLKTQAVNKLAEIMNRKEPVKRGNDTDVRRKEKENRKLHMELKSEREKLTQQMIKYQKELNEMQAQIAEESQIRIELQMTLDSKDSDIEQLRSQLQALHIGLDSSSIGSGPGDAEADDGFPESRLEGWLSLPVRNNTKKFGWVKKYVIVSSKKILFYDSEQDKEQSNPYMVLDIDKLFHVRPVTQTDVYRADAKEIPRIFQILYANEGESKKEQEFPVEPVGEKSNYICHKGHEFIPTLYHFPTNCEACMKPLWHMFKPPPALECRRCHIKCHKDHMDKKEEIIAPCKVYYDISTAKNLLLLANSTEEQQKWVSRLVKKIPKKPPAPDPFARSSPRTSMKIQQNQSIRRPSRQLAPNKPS
T9 sequence (Q15418 392-735 limits assumed): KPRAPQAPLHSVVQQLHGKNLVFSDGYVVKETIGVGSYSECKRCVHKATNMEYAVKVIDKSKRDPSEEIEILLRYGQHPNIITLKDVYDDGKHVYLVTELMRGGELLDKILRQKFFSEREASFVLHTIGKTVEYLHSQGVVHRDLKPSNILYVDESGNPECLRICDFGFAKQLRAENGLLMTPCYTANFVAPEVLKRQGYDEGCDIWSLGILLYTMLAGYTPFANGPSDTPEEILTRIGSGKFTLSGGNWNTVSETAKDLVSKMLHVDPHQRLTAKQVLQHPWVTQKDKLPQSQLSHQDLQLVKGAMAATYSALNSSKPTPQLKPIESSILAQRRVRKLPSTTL
T4 sequence (Q9P286 whole entry): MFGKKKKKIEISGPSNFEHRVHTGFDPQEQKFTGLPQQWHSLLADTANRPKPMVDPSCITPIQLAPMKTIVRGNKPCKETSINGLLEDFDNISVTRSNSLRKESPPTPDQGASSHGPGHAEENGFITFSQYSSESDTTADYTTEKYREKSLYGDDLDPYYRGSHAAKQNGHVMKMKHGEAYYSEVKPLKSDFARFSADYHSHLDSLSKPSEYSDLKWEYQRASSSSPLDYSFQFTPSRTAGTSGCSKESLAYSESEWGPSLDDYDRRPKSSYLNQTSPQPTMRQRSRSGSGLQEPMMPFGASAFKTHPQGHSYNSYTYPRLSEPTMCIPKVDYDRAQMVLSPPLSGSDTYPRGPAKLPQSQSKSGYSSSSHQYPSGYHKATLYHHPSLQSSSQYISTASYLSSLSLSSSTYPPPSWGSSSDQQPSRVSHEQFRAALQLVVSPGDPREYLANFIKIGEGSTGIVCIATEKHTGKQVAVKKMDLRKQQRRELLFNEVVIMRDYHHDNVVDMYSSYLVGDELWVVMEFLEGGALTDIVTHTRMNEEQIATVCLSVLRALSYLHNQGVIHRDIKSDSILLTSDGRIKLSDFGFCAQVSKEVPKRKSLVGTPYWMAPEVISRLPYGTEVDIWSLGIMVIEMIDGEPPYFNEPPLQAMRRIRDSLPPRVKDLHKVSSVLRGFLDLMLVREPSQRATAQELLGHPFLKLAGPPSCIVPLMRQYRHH
T7 sequence (Q06187 whole entry): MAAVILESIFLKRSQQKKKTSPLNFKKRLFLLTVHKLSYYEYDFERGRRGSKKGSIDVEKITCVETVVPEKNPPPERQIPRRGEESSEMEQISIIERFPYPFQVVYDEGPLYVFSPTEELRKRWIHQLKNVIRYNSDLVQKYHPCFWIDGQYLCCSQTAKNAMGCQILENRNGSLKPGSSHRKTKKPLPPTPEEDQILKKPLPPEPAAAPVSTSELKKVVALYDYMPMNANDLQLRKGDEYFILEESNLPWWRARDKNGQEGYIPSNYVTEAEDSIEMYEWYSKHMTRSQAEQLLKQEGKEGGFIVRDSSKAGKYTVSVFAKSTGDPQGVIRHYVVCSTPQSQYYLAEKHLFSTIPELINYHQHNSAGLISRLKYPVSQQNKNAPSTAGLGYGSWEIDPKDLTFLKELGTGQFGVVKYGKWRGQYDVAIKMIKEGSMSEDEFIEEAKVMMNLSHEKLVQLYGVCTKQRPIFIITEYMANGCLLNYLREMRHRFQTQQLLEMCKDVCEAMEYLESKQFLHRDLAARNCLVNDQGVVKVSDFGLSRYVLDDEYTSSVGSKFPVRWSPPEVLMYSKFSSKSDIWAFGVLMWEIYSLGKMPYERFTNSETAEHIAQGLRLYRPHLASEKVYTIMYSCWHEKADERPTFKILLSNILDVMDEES
T3 sequence (Q07002 whole entry): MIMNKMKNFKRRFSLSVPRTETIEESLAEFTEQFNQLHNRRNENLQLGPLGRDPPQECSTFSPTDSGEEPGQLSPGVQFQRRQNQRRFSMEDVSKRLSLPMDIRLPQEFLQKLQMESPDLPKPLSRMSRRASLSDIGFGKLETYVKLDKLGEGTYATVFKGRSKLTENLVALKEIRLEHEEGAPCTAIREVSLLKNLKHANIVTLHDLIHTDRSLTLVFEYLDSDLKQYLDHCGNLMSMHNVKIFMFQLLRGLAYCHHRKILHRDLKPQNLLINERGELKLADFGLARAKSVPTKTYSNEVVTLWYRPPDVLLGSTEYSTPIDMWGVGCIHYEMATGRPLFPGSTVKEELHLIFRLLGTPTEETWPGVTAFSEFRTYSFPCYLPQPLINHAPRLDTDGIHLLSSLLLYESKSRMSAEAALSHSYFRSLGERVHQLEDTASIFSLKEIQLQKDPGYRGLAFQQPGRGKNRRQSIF
T8 sequence (Q00526 whole entry): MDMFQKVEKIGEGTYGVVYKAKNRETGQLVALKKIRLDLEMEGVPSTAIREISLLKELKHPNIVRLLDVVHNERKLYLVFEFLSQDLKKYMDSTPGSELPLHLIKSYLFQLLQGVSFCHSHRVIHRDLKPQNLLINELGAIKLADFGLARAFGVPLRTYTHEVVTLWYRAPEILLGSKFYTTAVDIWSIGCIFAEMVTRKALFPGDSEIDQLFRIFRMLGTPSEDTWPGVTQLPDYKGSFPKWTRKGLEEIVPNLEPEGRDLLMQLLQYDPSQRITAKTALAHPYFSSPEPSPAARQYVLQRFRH

inhibition at 10 µM (RAF1; RAF1, 10 µM, read-out: % Competition): 81%
inhibition at 10 µM (PRKD2; PRKD2 (PKD2), 10 µM, read-out: % Competition): 98%
inhibition at 10 µM (PCTK3; PCTK3, 10 µM, read-out: % Competition): 77%
inhibition at 10 µM (PAK7; PAK7, 10 µM, read-out: % Competition): 86%
inhibition at 10 µM (ROCK2; ROCK2, 10 µM, read-out: % Competition): 89%
inhibition at 10 µM (PLK4; PLK4, 10 µM, read-out: % Competition): 98%
% Competition (BTK): 91%
% Competition (CDK3): 92%
inhibition at 10 µM ([1]; RPS6KA1(Kin.Dom.2-C-terminal), 10 µM, read-out: % Competition): 92%
inhibition at 10 µM (KIT(V559D); KIT(V559D), 10 µM, read-out: % Competition): 75%
SMILES: Fc1ccc(-c2c(-c3ccncc3)[nH]c3nccnc23)cc1 [Compound 122]

SMILES: CC(O)CNc1cc(-c2[nH]c3cccnc3c2-c2ccc(F)cc2)ccn1 (stereo not drawn) [Compound 140]
inhibition at 10 µM (RAF1; read-out: % Competition): < 50%
inhibition at 10 µM (PRKD2; read-out: % Competition): 99%
inhibition at 10 µM (PCTK3; read-out: % Competition): < 50%
inhibition at 10 µM (PAK7; read-out: % Competition): < 50%
inhibition at 10 µM (ROCK2; read-out: % Competition): < 50%
inhibition at 10 µM (PLK4; read-out: % Competition): < 50%
% Competition (BTK): <50%
% Competition (CDK3): <50%
inhibition at 10 µM ([1]; read-out: % Competition): 87%
inhibition at 10 µM (KIT(V559D); read-out: % Competition): < 50%

inhibition at 10 µM (RAF1; RAF1, compound concentration 10 uM, read-out: Percent Competition): 81%
inhibition at 10 µM (PRKD2; PRKD2, compound concentration 10 uM, read-out: Percent Competition): 98%
inhibition at 10 µM (PCTK3; PCTK3, compound concentration 10 uM, read-out: Percent Competition): 77%
inhibition at 10 µM (PAK7; PAK7, compound concentration 10 uM, read-out: Percent Competition): 86%
inhibition at 10 µM (ROCK2; ROCK2, compound concentration 10 uM, read-out: Percent Competition): 89%
inhibition at 10 µM (PLK4; PLK4, compound concentration 10 uM, read-out: Percent Competition): 98%
Percent Competition (BTK; compound concentration 10 uM): 91%
Percent Competition (CDK3; compound concentration 10 uM): 92%
inhibition at 10 µM ([1]; RPS6KA1(Kin.Dom.2-C-terminal), compound concentration 10 uM, read-out: Percent Competition): 92%
inhibition at 10 µM (KIT(V559D); KIT(V559D), compound concentration 10 uM, read-out: Percent Competition): 75%
SMILES: Fc1ccc(-c2c(-c3ccncc3)[nH]c3nccnc23)cc1 [RO1155697-000-005]

From article PMC3445516 (PLoS ONE, 2012)
